Measured values from US11639483B2, “Macrocyclic musk lactones and uses thereof” (PHYTO TECH CORP., priority 2021, dated 2023).

Key:
[1] = Fiber substantivity: odor strength on fabric treated with softener, 14 member-panel; set-up: species or system human; conditions: 70% in isopropyl myristate dosed 0.25% w/w in softener; line dried 20 hours; 9 (very good) to 0 (very poor)
Method: Additionally, substantivity is evaluated olfactively by a panel after treating samples of substrate with a perfumed product, such as a fabric softener for cotton fabric or a shampoo for hair, containing the lactones described herein or other musk fragrances for comparison, according to standard procedures described below. Thus, the evaluation is essentially a relative odor intensity measurement. It is known that the perceived odor intensity of mixtures of perfume ingredients when evaluated as such is generally less than the sum of the perceived odors of the components. Thus, the perceived odor intensity of a 1:1 mixture of 2 of the components of the lactones described herein would be expected to be lower than the sum of the intensities of the separate components, i.e. in such mixtures odor suppression is generally found. On the contrary, the perceived odor intensity on substrate treated with the lactones described herein is at least equal to, but in most cases greater than the perceived intensity of substrate treated with equal amounts of the separate components.
Comparison of the fiber substantivity of single polycyclic musks and macrocyclic musks with musk mixtures is described herein. 70% Solutions in isopropyl myristate of the musks and musk mixtures to be tested are dosed at 0.25% w/w in a single Arquad fabric softener (GT 117B). The test is carried out by rinsing “6″×6” (weight: 16 g) cotton terry towel pieces at ambient temperature in a tergotometer according to the procedure below: • 3 g of fabric softener containing the test musk is added to 1 liter of water and agitated for one minute to disperse. The fabric piece is added and washed for 10 minutes with constant agitation at 100 rpm. On completion of the wash cycle, the pieces are hand wringed and line dried for 20 hours. • The cloths are assessed olfactively by a 14 member-panel. A 10-point scale is used running from 9 (very good) to 0 (very poor).

Odor strength on blotter = test: Odor strength on blotter; set-up: species or system human
Text: The results are presented below in Table 23a and Table 23b:

[2] = Appearance of musk in laundry detergent base; type: physicochemical
Method: Furthermore, musk lactone mixture A and other musks were also evaluated at two different loadings in laundry detergent base, as shown in Tables 38 and 39.

[3] = In use comparison of musk lactone mixture A with commercial musks in unperfumed laundry detergent, expert panel; set-up: species or system human; conditions: for DAMP HED / DAMP STR: damp towel; for DAMP HED / DRY TWL 1 DAY HED / DRY TWL 7 DAYS HED / DRY TWL 15 DAYS HED / JAR HED: hedonic; for DAMP STR / DRY TWL 1 DAY STR / DRY TWL 7 DAYS STR / DRY TWL 15 DAYS STR / JAR STR: strength; for DRY TWL 1 DAY HED / DRY TWL 1 DAY STR: dry towel 1 day; for DRY TWL 7 DAYS HED / DRY TWL 7 DAYS STR: dry towel 7 days; for DRY TWL 15 DAYS HED / DRY TWL 15 DAYS STR: dry towel 15 days; for JAR STR: jar (point of purchase)
Method: Olfactive evaluations in use were performed by an expert panel. The range of materials evaluated was comprehensive, including musk products commercially available: Nitromusk, Polycyclic and Macrocyclic categories (Ambrettolide, Dihydro Ambrettolide, Scentolide, Muscone, Muscenone, Velvione, Musk Ambrette, Edenolide, Ethylene Brassylate, Galaxolide, Tonalide, Habanolide, Globanone, Macrolide, Oxalide T and others).
Evaluation samples were prepared using unperfumed laundry detergent (formulation example in Example 4, Table 10) at two different dosages: 10% Solution @ 0.8% (yielding 0.08% musk lactone mixture A) or 1.5% (yielding 0.15% musk lactone mixture A) driven by relative product performance in formulas and practical laboratory practices to execute the comparisons. The concentration of musk lactone mixture A in each evaluation was at the same concentration as the commercial musk.
The evaluations were performed in use stages: Jar (POP—Point of purchase), damp towel, Dry towel (1 day) and Storage Dry towel (7 days and 15 days). A five points scale was utilized, rating both strength and hedonic character: • Strength (STR) is rated as the overall scent power coming up from the substrate, due to physicochemical properties and commonly described as a combination of diffusion, bloom, body and or volume perceptions.

[4] = Appearance (solubility) of shampoo with musk, increased load; type: physicochemical
[5] = 0.04% Musk in laundry detergent base
[6] = 0.08% Musk in laundry detergent base

Appearance [2, 5]	Appearance [2, 6]	Compound	DAMP HED ([3]; 10% IPM @0.8%)	DAMP STR ([3]; 10% IPM @0.8%)	DRY TWL 1 DAY HED ([3]; 10% IPM @0.8%)	DRY TWL 1 DAY STR ([3]; 10% IPM @0.8%)	DRY TWL 7 DAYS HED ([3]; 10% IPM @0.8%)	DRY TWL 7 DAYS STR ([3]; 10% IPM @0.8%)	DRY TWL 15 DAYS HED ([3]; 10% IPM @0.8%)	DRY TWL 15 DAYS STR ([3]; 10% IPM @0.8%)	JAR STR ([3]; 10% IPM @0.8%)	JAR HED ([3]; 10% IPM @0.8%)	also measured
Very cloudy	Phase separation	CC1COCc2cc3c(cc21)C(C)(C)C(C)C3(C)C (stereo not drawn) [Galaxolide, galaxolide]	–	–	–	–	–	–	–	–	–	–	ODOR STRENGTH ON FABRIC TREATED WITH SOFTENER, Rating (10-point scale) [1]: 3.8; ODOR STRENGTH ON BLOTTER, Rating (10-point scale) (Odor strength on blotter): 5.8; DAMP HED ([3]; 10% IPM @1.5%): −−/−− ((−−) Significantly inferior); DAMP STR ([3]; 10% IPM @1.5%): −−/−− ((−−) Significantly inferior); DRY TWL 1 DAY HED ([3]; 10% IPM @1.5%): −−/−− ((−−) Significantly inferior); DRY TWL 1 DAY STR ([3]; 10% IPM @1.5%): −−/−− ((−−) Significantly inferior); DRY TWL 7 DAYS HED ([3]; 10% IPM @1.5%): −−/−− ((−−) Significantly inferior); DRY TWL 7 DAYS STR ([3]; 10% IPM @1.5%): −−/−− ((−−) Significantly inferior); DRY TWL 15 DAYS HED ([3]; 10% IPM @1.5%): −−/−− ((−−) Significantly inferior); DRY TWL 15 DAYS STR ([3]; 10% IPM @1.5%): −−/−− ((−−) Significantly inferior); JAR STR ([3]; 10% IPM @1.5%): −−/−− ((−−) Significantly inferior); JAR HED ([3]; 10% IPM @1.5%): −−/−− ((−−) Significantly inferior)
–	–	CC1CC=CCCCCCCCCCC(=O)C1 (stereo not drawn) [MUSCENONE, muscenone]	++	+ ((+) directionally superior)	++/++	++/++	++/++	++/++	++/++	++/++	+ ((+) directionally superior)	++	–
–	–	Edenolide	−/− ((−) directionally inferior)	−/− ((−) directionally inferior)	0/0 (comparable)	0/0 ((0) comparable)	0/0 (comparable)	0/0 ((0) comparable)	0/0 (comparable)	0/0 ((0) comparable)	0/0 ((0) comparable)	0/0 (comparable)	–
–	–	COc1c(C(C)(C)C)cc([N+](=O)[O-])c(C)c1[N+](=O)[O-] [musk ambrette]	− ((−) directionally inferior)	++	0 (comparable)	+ ((+) directionally superior)	0 (comparable)	+ ((+) directionally superior)	0 (comparable)	+ ((+) directionally superior)	++	− ((−) directionally inferior)	–
Very cloudy	Phase separation	CC1CCCCCCCCCCCCC(=O)C1 (stereo not drawn) [l-muscone, muscone laevo]	–	–	–	–	–	–	–	–	–	–	–
–	–	Scentolide	0 / 0 (comparable)	0 / 0 ((0) comparable)	−/− ((−) directionally inferior)	−/− ((−) directionally inferior)	−/− ((−) directionally inferior)	−/− ((−) directionally inferior)	−/− ((−) directionally inferior)	−/− ((−) directionally inferior)	0/0 ((0) comparable)	0/0 (comparable)	–
Very cloudy	Phase separation	O=C1CCCCC/C=C\CCCCCCCCO1 [Ambrettolide]	+ ((+) directionally superior)	−− ((−−) Significantly inferior)	−/− ((−) directionally inferior)	−/− ((−) directionally inferior)	−/− ((−) directionally inferior)	−/− ((−) directionally inferior)	−/− ((−) directionally inferior)	−/− ((−) directionally inferior)	−− ((−−) Significantly inferior)	− ((−) directionally inferior)	appearance of shampoo formula ([4]; 0.3% musk with 0.2% fruity floral fragrance oil): cloudy; appearance of shampoo formula ([4]; lower level of ambrettolide (0.2%)): remaining clear
–	–	C[C@@H]1CCCCCCCCCCCCC(=O)C1 [MUSCONE, Muscone]	+ ((+) directionally superior)	++	++	+ ((+) directionally superior)	++	+ ((+) directionally superior)	++	+ ((+) directionally superior)	++/++	++/++	–
Very cloudy	Phase separation	O=C1CCCCCCCCCCCC(=O)OCCO1 [Ethylene Brassylate, ethylene brassilate]	–	–	–	–	–	–	–	–	–	–	DAMP HED ([3]; 10% IPM @1.5%): −− /−− ((−−) Significantly inferior); DAMP STR ([3]; 10% IPM @1.5%): −− /−− ((−−) Significantly inferior); DRY TWL 1 DAY HED ([3]; 10% IPM @1.5%): −−/−− ((−−) Significantly inferior); DRY TWL 1 DAY STR ([3]; 10% IPM @1.5%): −−/−− ((−−) Significantly inferior); DRY TWL 7 DAYS HED ([3]; 10% IPM @1.5%): −−/−− ((−−) Significantly inferior); DRY TWL 7 DAYS STR ([3]; 10% IPM @1.5%): −−/−− ((−−) Significantly inferior); DRY TWL 15 DAYS HED ([3]; 10% IPM @1.5%): −−/−− ((−−) Significantly inferior); DRY TWL 15 DAYS STR ([3]; 10% IPM @1.5%): −−/−− ((−−) Significantly inferior); JAR STR ([3]; 10% IPM @1.5%): −−/−− ((−−) Significantly inferior); JAR HED ([3]; 10% IPM @1.5%): −−/−− ((−−) Significantly inferior)
Very cloudy	Phase separation	O=C1CCC/C=C\CCCCCCCCCC1 [velvione]	+/+ ((+) directionally superior)	+/+ ((+) directionally superior)	++/++	++/++	++/++	++/++	++/++	++/++	+ ((+) directionally superior)	0 (comparable)	–
–	–	O=C1CCCCCCCCCCCCCCCO1 [Hexadecanolide]	–	–	–	–	–	–	–	–	–	–	ODOR STRENGTH ON FABRIC TREATED WITH SOFTENER, Rating (10-point scale) [1]: 4.8; ODOR STRENGTH ON BLOTTER, Rating (10-point scale) (Odor strength on blotter): 5.8
–	–	CC(=O)c1cc2c(cc1C)C(C)(C)C(C)CC2(C)C (stereo not drawn) [Tonalid, tonalid]	–	–	–	–	–	–	–	–	–	–	ODOR STRENGTH ON FABRIC TREATED WITH SOFTENER, Rating (10-point scale) [1]: 7.2; ODOR STRENGTH ON BLOTTER, Rating (10-point scale) (Odor strength on blotter): 8.2
–	–	O=C1CCCCCCCCOCCCCCCO1 [OXALIDE T, Oxalide T]	0/0 (comparable)	0/0 ((0) comparable)	0/0 (comparable)	0/0 ((0) comparable)	0/0 (comparable)	0/0 ((0) comparable)	0/0 (comparable)	0/0 ((0) comparable)	0 ((0) comparable)	− ((−) directionally inferior)	–
Very cloudy	Phase separation	O=C1CCCCCCCCCCCCCCCO1 [dihydroambrettolide]	+ ((+) directionally superior)	0 ((0) comparable)	+ ((+) directionally superior)	0 ((0) comparable)	+ ((+) directionally superior)	0 ((0) comparable)	+ ((+) directionally superior)	0 ((0) comparable)	0 ((0) comparable)	− ((−) directionally inferior)	–

Compound	Appearance [2, 5]	Appearance [2, 6]	DAMP HED ([3]; 10% IPM @0.8%)	DAMP STR ([3]; 10% IPM @0.8%)	DRY TWL 1 DAY HED ([3]; 10% IPM @0.8%)	DRY TWL 1 DAY STR ([3]; 10% IPM @0.8%)	DRY TWL 7 DAYS HED ([3]; 10% IPM @0.8%)	DRY TWL 7 DAYS STR ([3]; 10% IPM @0.8%)	DRY TWL 15 DAYS HED ([3]; 10% IPM @0.8%)	DRY TWL 15 DAYS STR ([3]; 10% IPM @0.8%)	JAR STR ([3]; 10% IPM @0.8%)	JAR HED ([3]; 10% IPM @0.8%)	also measured
CC(=O)c1cc2c(cc1C)C(C)(C)C(C)CC2(C)C (stereo not drawn) [tonalide/fixolide]	Very cloudy	Phase separation	–	–	–	–	–	–	–	–	–	–	–
